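Protocol summary: plate cells (96-well), add compound at 5 concentrations, incubate 48 h, interpolate endpoints linearly. GI50 marks 50% less growth. At the TGI there is no net growth.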
Experiments:
Assay in all cases: NCI anticancer screen, dose series, 48 h
[1] = test system: 786-0 renal
[2] = test system: EKVX NSCLC
[3] = test system: HT29 colon
[4] = test system: IGROV1 ovarian
[5] = test system: K-562 leukemia
[6] = test system: MALME-3M melanoma
[7] = test system: OVCAR-5 ovarian
[8] = test system: SN12C renal
[9] = test system: UACC-62 melanoma
[10] = test system: SR leukemia

Row | Structure (SMILES) | TGI [1] | TGI [2] | TGI [3] | TGI [4] | TGI [5] | TGI [6] | TGI [7] | TGI [8] | TGI [9] | GI50 [1] | GI50 [2] | GI50 [4] | GI50 [5] | GI50 [6] | GI50 [7] | GI50 [8] | GI50 [10] | TGI [10] | GI50 [9] | GI50 [3]
1 | O=C1C=Cc2noc3cccc1c23 | 20.7 µM | 10.2 µM | 79.7 µM | 29.4 µM | 9.65 µM | 25.7 µM | 28.4 µM | 27.3 µM | 13.4 µM | – | – | – | – | – | – | – | – | – | – | –
2 | Cc1nc(Nc2ccc([N+](=O)[O-])cc2)sc1C(=O)/C=C/c1ccc(N(C)C)cc1 | > 100 µM | > 100 µM | > 100 µM | > 100 µM | > 100 µM | > 100 µM | > 100 µM | > 100 µM | > 100 µM | – | – | – | – | – | – | – | – | – | – | –
3 | N#CC(C#N)=C/C=C/c1cccc([N+](=O)[O-])c1 | 3.17 µM | 27.8 µM | – | 9.32 µM | > 100 µM | 8.87 µM | 7.96 µM | 30 µM | 2.96 µM | 1.51 µM | 3.47 µM | 0.71 µM | 1.59 µM | 1.69 µM | 2.24 µM | 3.23 µM | 0.576 µM | 15.3 µM | 1.3 µM | –
4 | Cc1[nH]nc(C(=O)N/N=C/c2cccs2)c1N=NN(C)C | 69.6 µM | > 100 µM | 17.4 µM | 31.1 µM | > 100 µM | 56.7 µM | > 100 µM | > 100 µM | 51.7 µM | – | – | – | – | – | – | – | – | – | – | –
5 | COc1cc(C(N)=O)c(OC)c(OC)c1OC | > 100 µM | > 100 µM | > 100 µM | > 100 µM | > 100 µM | – | > 100 µM | > 100 µM | > 100 µM | – | – | – | – | – | – | – | – | – | – | –
6 | CN(C)/C(=N/C(=O)Nc1ccccc1)SCc1ccccc1 | > 100 µM | > 100 µM | > 100 µM | > 100 µM | > 100 µM | > 100 µM | > 100 µM | > 100 µM | > 100 µM | – | – | – | – | – | – | – | – | – | – | –
7 | COc1cc(C=NCC(=O)CSC(c2ccccc2)c2ccccc2)cc(OC)c1OC | > 100 µM | > 100 µM | 83.6 µM | – | 93.7 µM | 61.7 µM | > 100 µM | > 100 µM | > 100 µM | 24.6 µM | 27.8 µM | – | 8.63 µM | 16.8 µM | 63.5 µM | 25.8 µM | 14 µM | > 100 µM | 19.2 µM | 8 µM
8 | Nc1nc(Cl)cc(NCCCCCCCCCCNc2cc(Cl)nc(N)n2)n1 | 91.5 µM | > 100 µM | > 100 µM | > 100 µM | > 100 µM | – | > 100 µM | > 100 µM | > 100 µM | – | – | – | – | – | – | – | – | > 100 µM | – | –
9 | S=C1OC2C3C4CC5C3C(O1)C1C5C4C21 (configuration not stated) | > 100 µM | > 100 µM | > 100 µM | > 100 µM | – | > 100 µM | > 100 µM | > 100 µM | > 100 µM | – | – | – | – | – | – | – | – | > 100 µM | – | –
10 | COS(=O)CCOC(=O)c1ccccc1SSc1ccccc1C(=O)OCCS(=O)OC (configuration not stated) | 38.2 µM | > 100 µM | 28.8 µM | > 100 µM | 69.6 µM | 63.7 µM | > 100 µM | 85.9 µM | 51.5 µM | – | – | – | – | – | – | – | – | – | – | –

From PubChem BioAssay (NCI)
